Target: T1, human active recombinant p38α-6His tagged (Homo sapiens, UniProt Q16539)
T1 construct: 6His
Experiment: p38 Alpha Enzyme Assay (AlphaScreen, biotinylated-ATF2 substrate)
Type: biochemical
Conditions: pre-incubated 4 hours at 37° C., reaction initiated with ATP; 0.5 nM enzyme; read-out: p38 pIC50 (converted)

T1 sequence (Q16539 whole entry): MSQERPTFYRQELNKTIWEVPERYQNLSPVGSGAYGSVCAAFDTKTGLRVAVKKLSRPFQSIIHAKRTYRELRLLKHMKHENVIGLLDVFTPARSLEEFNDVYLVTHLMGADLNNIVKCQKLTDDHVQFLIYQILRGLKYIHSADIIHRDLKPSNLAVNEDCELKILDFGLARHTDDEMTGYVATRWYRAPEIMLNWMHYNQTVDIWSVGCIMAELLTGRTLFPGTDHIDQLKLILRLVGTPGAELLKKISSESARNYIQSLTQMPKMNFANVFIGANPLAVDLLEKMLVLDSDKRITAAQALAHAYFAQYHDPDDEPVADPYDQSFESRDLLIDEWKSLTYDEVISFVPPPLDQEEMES

| IC50 [pM] | SMILES |
| --- | --- |
| 794 | Cc1c(F)cc(C(=O)NC2CC2)cc1-c1ccc2c(=O)n(CC3CC3)cc(CN3CCC[C@@H]3CN)c2c1 [Example 120, (R)-3-(4-((2-(Aminomethyl)pyrrolidin-1-yl)methyl)-2-(cyclopropylmethyl)-1-oxo-1,2-dihydroisoquinolin-6-yl)-N-cyclopropyl-5-fluoro-4-methylbenzamide] |
| 3980 | Cc1ccc(C(=O)NC2CC2)cc1-c1ccc2c(=O)n(C(C)c3ccccc3)ccc2c1 (stereo not shown) [Example 121, N-Cyclopropyl-4-methyl-3-(1-oxo-2-(1-phenylethyl)-1,2-dihydroisoquinolin-6-yl)benzamide] |
| 1580 | Cc1ccc(C(=O)NC2CC2)cc1-c1ccc2c(=O)n(CC3CC3)ccc2c1 [Example 122, N-Cyclopropyl-3-(2-cyclopropylmethyl-1-oxo-1,2-dihydro-isoquinolin-6-yl)-4-methylbenzamide] |
| 3160 | CCC(CC)Cn1ccc2cc(-c3cc(C(=O)NC4CC4)ccc3C)ccc2c1=O [Example 123, N-Cyclopropyl-3-(2-(2-ethylbutyl)-1-oxo-1,2-dihydroisoquinolin-6-yl)-4-methylbenzamide] |
| 3980 | Cc1ccc(C(=O)NC2CC2)cc1-c1ccc2c(=O)n(CC3CCC3)ccc2c1 [Example 124, 3-(2-(Cyclobutylmethyl)-1-oxo-1,2-dihydroisoquinolin-6-yl)-N-cyclopropyl-4-methylbenzamide] |
| 63100 | Cc1ccc(C(=O)NC2CC2)cc1-c1ccc2c(=O)n(CC3CCNCC3)ccc2c1 [Example 125, N-Cyclopropyl-4-methyl-3-(1-oxo-2-piperidin-4-ylmethyl-1,2-dihydro-isoquinolin-6-yl)-benzamide] |
| 10000 | Cc1ccc(C(=O)NC2CC2)cc1-c1ccc2c(=O)n(Cc3ccccn3)ccc2c1 [Example 126, N-Cyclopropyl-4-methyl-3-(1-oxo-2-(pyridin-2-ylmethyl)-1,2-dihydroisoquinolin-6-yl)benzamide] |
| 158 | Cc1c(F)cc(C(=O)NC2CC2)cc1-c1ccc2c(=O)n(CC3CC3)cc(CN3CCNC(CO)CC3)c2c1 (stereo not shown) [Example 127, N-Cyclopropyl-3-[2-cyclopropylmethyl-4-(5-hydroxymethyl-[1,4]diazepan-1-ylmethyl)-1-oxo-1,2-dihydro-isoquinolin-6-yl]-5-fluoro-4-methyl-benzamide] |
| 316 | Cc1c(F)cc(C(=O)NC2CC2)cc1-c1ccc2c(=O)n(CC3CC3)cc(CN3CCC[C@H]3CN)c2c1 [Example 128, (S)-3-(4-((2-(Aminomethyl)pyrrolidin-1-yl)methyl)-2-(cyclopropylmethyl)-1-oxo-1,2-dihydroisoquinolin-6-yl)-N-cyclopropyl-5-fluoro-4-methylbenzamide] |

The next lines start with the compound.

| SMILES | IC50 [pM] |
| --- | --- |
| Cc1ccc(C(=O)NC2CC2)cc1-c1ccc2c(=O)n(Cc3ccccc3)cc(C(=O)NCCN(C)C)c2c1 [Example 47, 2-Benzyl-6-(5-(cyclopropylcarbamoyl)-2-methylphenyl)-N-(2-(dimethylamino)ethyl)-1-oxo-1,2-dihydroisoquinoline-4-carboxamide] | 1260 |
| Cc1c(F)cc(C(=O)NC2CC2)cc1-c1ccc2c(=O)n(CC3CC3)cc(CN3CC[C@@H](N)C3)c2c1 [Example 109, (R)-3-(4-((3-Aminopyrrolidin-1-yl)methyl)-2-(cyclopropylmethyl)-1-oxo-1,2-dihydroisoquinolin-6-yl)-N-cyclopropyl-5-fluoro-4-methylbenzamide] | 1580 |
| Cc1c(F)cc(C(=O)NC2CC2)cc1-c1ccc2c(=O)n(CC3CC3)cc(CN[C@@H]3CCNC3)c2c1 [Example 110, (R)—N-Cyclopropyl-3-(2-(cyclopropylmethyl)-1-oxo-4-((pyrrolidin-3-ylamino)methyl)-1,2-dihydroisoquinolin-6-yl)-5-fluoro-4-methylbenzamide] | 1000 |
| Cc1c(F)cc(C(=O)NC2CC2)cc1-c1ccc2c(=O)n(CC3CC3)cc(CN3C[C@@H]4C[C@H]3CN4)c2c1 [Example 111, 3-(4-((1S,4S)-2,5-Diazabicyclo[2.2.1]heptan-2-ylmethyl)-2-(cyclopropylmethyl)-1-oxo-1,2-dihydroisoquinolin-6-yl)-N-cyclopropyl-5-fluoro-4-methylbenzamide] | 100 |
| Cc1c(F)cc(C(=O)NC2CC2)cc1-c1ccc2c(=O)n(Cc3ccc(S(C)(=O)=O)cc3)cc(CN3CCN(C)CC3)c2c1 [Example 112, N-Cyclopropyl-3-fluoro-4-methyl-5-(4-((4-methylpiperazin-1-yl)methyl)-2-(4-(methylsulfonyl)benzyl)-1-oxo-1,2-dihydroisoquinolin-6-yl)benzamide] | 126 |
| Cc1c(F)cc(C(=O)NC2CC2)cc1-c1ccc2c(=O)n(Cc3ccc(S(C)(=O)=O)cc3)cc(CN3CCN[C@@H](CO)C3)c2c1 [Example 113, (R)—N-Cyclopropyl-3-fluoro-5-(4-((3-(hydroxymethyl)piperazin-1-yl)methyl)-2-(4-(methylsulfonyl)benzyl)-1-oxo-1,2-dihydroisoquinolin-6-yl)-4-methylbenzamide] | 79.4 |
| Cc1ccc(C(=O)NC2CC2)cc1-c1ccc2c(=O)n(Cc3ccc(C(=O)NS(C)(=O)=O)cc3)cc(CN3CCCN(C)CC3)c2c1 [Example 114, N-Cyclopropyl-4-methyl-3-(4-((4-methyl-1,4-diazepan-1-yl)methyl)-2-(4-(methylsulfonylcarbamoyl)benzyl)-1-oxo-1,2-dihydroisoquinolin-6-yl)benzamide] | 251 |
| Cc1c(F)cc(C(=O)NC2CC2)cc1-c1ccc2c(=O)n(Cc3ccc(S(C)(=O)=O)cc3)cc(CN3CCN(C)[C@@H](CO)C3)c2c1 [Example 115] | 100 |
| CC[C@H]1CN(Cc2cn(CC3CC3)c(=O)c3ccc(-c4cc(C(=O)NC5CC5)cc(F)c4C)cc23)CCN1 [Example 116, (S)—N-Cyclopropyl-3-(2-(cyclopropylmethyl)-4-((3-ethylpiperazin-1-yl)methyl)-1-oxo-1,2-dihydroisoquinolin-6-yl)-5-fluoro-4-methylbenzamide] | 501 |
| Cc1c(F)cc(C(=O)NC2CC2)cc1-c1ccc2c(=O)n(CC3CC3)cc(CN3CCN[C@@H](CCO)C3)c2c1 [Example 117, (S)—N-Cyclopropyl-3-(2-(cyclopropylmethyl)-4-((3-(2-hydroxyethyl)piperazin-1-yl)methyl)-1-oxo-1,2-dihydroisoquinolin-6-yl)-5-fluoro-4-methylbenzamide] | 158 |
| Cc1c(F)cc(C(=O)NC2CC2)cc1-c1ccc2c(=O)n(CC3CC3)cc(CN3CCNC[C@@H]3C)c2c1 [Example 118, (S)—N-Cyclopropyl-3-(2-(cyclopropylmethyl)-4-((2-methylpiperazin-1-yl)methyl)-1-oxo-1,2-dihydroisoquinolin-6-yl)-5-fluoro-4-methylbenzamide] | 251 |
| Cc1c(F)cc(C(=O)NC2CC2)cc1-c1ccc2c(=O)n(CC3CC3)cc(CN3C[C@@H](N)C[C@@H]3CO)c2c1 [Example 119, 3-(4-(((2R,4S)-4-Amino-2-(hydroxymethyl)pyrrolidin-1-yl)methyl)-2-(cyclopropylmethyl)-1-oxo-1,2-dihydroisoquinolin-6-yl)-N-cyclopropyl-5-fluoro-4-methylbenzamide] | 398 |

System: not listed separately
Experiment: GVS (Dynamic Vapour Sorption) determination
Type: physicochemical
Conditions: at 80% RH (±0.2%); crystalline polymorph A
Experimental: GVS profiles were measured using a Dynamic Vapour Sorption DVS-1 instrument. The solid sample ca. 1-5 mg was placed into a glass vessel and the weight of the sample was recorded during a dual cycle step method (40 to 90 to 0 to 90 to 0% relative humidity (RH), in steps of 10% RH).

| GVS weight increase [% w/w] | SMILES |
| --- | --- |
| 0.9 | Cc1ccc(C(=O)NC2CC2)cc1-c1ccc2c(=O)n(Cc3ccccc3)cc(C(=O)NCCN(C)C)c2c1 [Example 47, 2-Benzyl-6-(5-(cyclopropylcarbamoyl)-2-methylphenyl)-N-(2-(dimethylamino)ethyl)-1-oxo-1,2-dihydroisoquinoline-4-carboxamide] |
